The values below come from patent US8877707B2, “Inhibitors of HCV NS5A” (Presidio Pharmaceuticals, Inc., priority 2010, dated 2014).

pEC50: −log10 of the molar value.

In this assay the test system is HCV genotype 1b replicon in Huh 7 cells. Description: HCV replicon assay (1b_Huh-Luc/Neo-ET cell line, luciferase readout). The class given is cell-based. To be noted: Hepatitis C virus, Huh-7; HCV 1b replicon; read-out: Inhibition of HCV genotype 1b. The method, boiled down: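 Replicon level was read as luciferase signal after 72 h compound exposure, triplicate wells, starting the day after cells were plated. Cell line: 1b_Huh-Luc/Neo-ET. Values normalised to control as percent, and EC50 fitted with a variable-slope sigmoid; determinations repeated.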
Background: A replicon is a self-replicating genome or part of one, used to study replication in cells.

In the case of `COC(=O)N[C@H](C(=O)N1CCC[C@H]1c1ncc(-c2ccc3cc(-c4ccc5nc([C@@H]6CCCN6C(=O)[C@@H](NC(=O)OC)C6CCOCC6)[nH]c5c4)nnc3c2)[nH]1)C1CCOCC1` [compound 531], the pEC50 is greater than 9.00.

Take `COC(=O)N[C@H](C(=O)N1CCC[C@H]1c1nc2ccc(-c3ccc4cc(-c5cnc([C@@H]6CCCN6C(=O)[C@@H](NC(=O)OC)[C@@H](C)OC)[nH]5)ccc4c3)nc2[nH]1)C(C)C` [compound 532]: the pEC50 is greater than 9.00.

With `COC(=O)N[C@H](C(=O)N1CCC[C@H]1c1nc2ccc(-c3ccc4cc(-c5cnc([C@@H]6CCCN6C(=O)[C@@H](NC(=O)OC)[C@@H](C)OC)[nH]5)ccc4c3)nc2[nH]1)C1CCCC1` [compound 533], the pEC50 was greater than 9.00.

On to `CC[C@H](C)[C@H](NC(=O)OC)C(=O)N1CCC[C@H]1c1nc2ccc(-c3ccc4cc(-c5cnc([C@@H]6CCCN6C(=O)[C@@H](NC(=O)OC)[C@@H](C)OC)[nH]5)ccc4c3)nc2[nH]1` [compound 534], for which the pEC50 is greater than 9.00.

Consider `COC(=O)N[C@H](C(=O)N1CCC[C@H]1c1ncc(-c2ccc3oc(-c4ccc(-c5cnc([C@@H]6CCCN6C(=O)[C@H](NC(=O)OC(C)(C)C)c6ccccc6)[nH]5)cc4)nc3c2)[nH]1)C(C)C` [compound 535], for which the pEC50 was greater than 9.00.

For the compound `COC(=O)N[C@H](C(=O)N1CCC[C@H]1c1ncc(-c2ccc(-c3nc4cc(-c5cnc([C@@H]6CCCN6C(=O)[C@H](NC(=O)OC)c6ccccc6)[nH]5)ccc4s3)cc2)[nH]1)C(C)C` [compound 536], the pEC50 was greater than 9.00.

In the case of `COC(=O)N[C@H](C(=O)N1CCC[C@H]1c1nc2ccc(-c3ccc4cc(-c5ccc6nc([C@@H]7CCCN7C(=O)[C@@H](NC(=O)OC)C(C)C)[nH]c6c5)nnc4c3)cc2[nH]1)C(C)C` [compound 537], the pEC50 was greater than 9.00.

With `COC(=O)N[C@H](C(=O)N1CCC[C@H]1c1nc2ccc(-c3ccc4cc(-c5ccc6nc([C@@H]7CCCN7C(=O)[C@@H](NC(=O)OC)[C@@H](C)OC)[nH]c6c5)nnc4c3)cc2[nH]1)[C@@H](C)OC` [compound 538], the pEC50 was greater than 9.00.

Consider `COC(=O)N[C@H](C(=O)N1CCC[C@H]1c1nc2c([nH]1)-c1ccc(-c3ccc4cc(-c5cnc([C@@H]6CCCN6C(=O)[C@H](NC(=O)OC)c6ccccc6)[nH]5)ccc4n3)cc1CCC2)C(C)C` [compound 539], for which the pEC50 is greater than 9.00.

As to `COC(=O)N[C@H](C(=O)N1CCC[C@H]1c1nc2c([nH]1)-c1ccc(-c3ccc4cc(-c5cnc([C@@H]6CCCN6C(=O)[C@H](NC(=O)OC6CCOCC6)c6ccccc6)[nH]5)ccc4n3)cc1CCC2)C(C)C` [compound 540], the pEC50 was greater than 9.00.

As to `COC(=O)N[C@H](C(=O)N1CCC[C@H]1C(=O)Nc1ccc(-c2ccc3cc(-c4cnc([C@@H]5CCCN5C(=O)[C@@H](NC(=O)OC)C(C)C)[nH]4)ccc3n2)cc1)C(C)C` [compound 541], the pEC50 was 8.00 to 9.00.

Take `COC(=O)N[C@H](C(=O)N1CCC[C@H]1C(=O)Nc1ccc(-c2ccc3cc(-c4cnc([C@@H]5CCCN5C(=O)[C@@H](NC(=O)OC)C5CCOCC5)[nH]4)ccc3n2)cc1)C1CCOCC1` [compound 542]: the pEC50 is 8.00 to 9.00.

Take `COC(=O)N[C@@H](C(=O)N1CCC[C@H]1C(=O)Nc1ccc(-c2ccc3cc(-c4cnc([C@@H]5CCCN5C(=O)[C@H](NC(=O)OC)c5ccccc5)[nH]4)ccc3n2)cc1)c1ccccc1` [compound 543]: the pEC50 was greater than 9.00.

For the compound `COC(=O)N[C@H](C(=O)N1CCC[C@H]1CNC(=O)c1ccc(-c2ccc3cc(-c4cnc([C@@H]5CCCN5C(=O)[C@@H](NC(=O)OC)C(C)C)[nH]4)ccc3n2)cc1)C(C)C` [compound 544], the pEC50 is greater than 9.00.

Regarding `COC(=O)N[C@@H](C(=O)N1CCC[C@H]1CNC(=O)c1ccc(-c2ccc3cc(-c4cnc([C@@H]5CCCN5C(=O)[C@H](NC(=O)OC)c5ccccc5)[nH]4)ccc3n2)cc1)c1ccccc1` [compound 545], the pEC50 is greater than 9.00.

Turning to `COC(=O)N[C@H](C(=O)N1CCC[C@H]1C(=O)NCc1ccc(-c2ccc3cc(-c4cnc([C@@H]5CCCN5C(=O)[C@@H](NC(=O)OC)C(C)C)[nH]4)ccc3n2)cc1)C(C)C` [compound 546], the pEC50 is 6.00 to 8.00.

For the compound `COC(=O)N[C@@H](C(=O)N1CCC[C@H]1C(=O)NCc1ccc(-c2ccc3cc(-c4cnc([C@@H]5CCCN5C(=O)[C@H](NC(=O)OC)c5ccccc5)[nH]4)ccc3n2)cc1)c1ccccc1` [compound 547], the pEC50 was greater than 9.00.

`COC(=O)N[C@@H](C(=O)N1CCC[C@H]1CNC(=O)c1cnc2cc(-c3ccc4c(c3)CCc3nc([C@@H]5CCCN5C(=O)[C@H](NC(=O)OC)c5ccccc5)[nH]c3-4)ccc2c1)c1ccccc1` [compound 548]: the pEC50 was greater than 9.00.

As to `COC(=O)N[C@H](C(=O)N1CCC[C@H]1CNC(=O)c1cnc2cc(-c3ccc4c(c3)CCc3nc([C@@H]5CCCN5C(=O)[C@@H](NC(=O)OC)C(C)C)[nH]c3-4)ccc2c1)C(C)C` [compound 549], the pEC50 is 8.00 to 9.00.

As for `COC(=O)N[C@H](C(=O)N1CCC[C@H]1CNC(=O)c1cnc2cc(-c3ccc4c(ccc5nc([C@@H]6CCCN6C(=O)[C@@H](NC(=O)OC)C(C)C)[nH]c54)c3)ccc2c1)C(C)C` [compound 550], the pEC50 was 8.00 to 9.00.

On to `COC(=O)N[C@@H](C(=O)N1CCC[C@H]1CNC(=O)c1cnc2cc(-c3ccc4c(ccc5nc([C@@H]6CCCN6C(=O)[C@H](NC(=O)OC)c6ccccc6)[nH]c54)c3)ccc2c1)c1ccccc1` [compound 551], for which the pEC50 is greater than 9.00.

Turning to `COC(=O)N[C@H](C(=O)N1CCC[C@H]1CNC(=O)c1cnc2cc(-c3ccc(-c4cnc([C@@H]5CCCN5C(=O)[C@@H](NC(=O)OC)C(C)C)[nH]4)cc3)ccc2c1)C(C)C` [compound 552], the pEC50 was 8.00 to 9.00.

With `COC(=O)N[C@@H](C(=O)N1CCC[C@H]1CNC(=O)c1cnc2cc(-c3ccc(-c4cnc([C@@H]5CCCN5C(=O)[C@H](NC(=O)OC)c5ccccc5)[nH]4)cc3)ccc2c1)c1ccccc1` [compound 553], the pEC50 was greater than 9.00.

Take `COC(=O)N[C@H](C(=O)N1CCC[C@H]1CNC(=O)c1cnc2cc(-c3ccc4nc([C@@H]5CCCN5C(=O)[C@@H](NC(=O)OC)C(C)C)[nH]c4c3)ccc2c1)C(C)C` [compound 554]: the pEC50 is 8.00 to 9.00.

As to `COC(=O)N[C@@H](C)C(=O)N1CCC[C@H]1C(=O)N[C@@H](C)c1ccc(-c2ccc3cc(-c4cnc([C@@H]5CCCN5C(=O)[C@H](C)NC(=O)OC)[nH]4)ccc3c2)cc1` [compound 556], the pEC50 is 6.00 to 8.00.

Turning to `COC(=O)N[C@H](C(=O)N1CCC[C@H]1C(=O)N[C@@H](C)c1ccc(-c2ccc3cc(-c4cnc([C@@H]5CCCN5C(=O)[C@@H](NC(=O)OC)C(C)C)[nH]4)ccc3c2)cc1)C(C)C` [compound 557], the pEC50 was greater than 9.00.

Regarding `COC(=O)N[C@H](C(=O)N1CCC[C@H]1C(=O)N[C@@H](C)c1ccc(-c2ccc3cc(-c4cnc([C@@H]5CCCN5C(=O)[C@@H](NC(=O)OC)[C@@H](C)OC)[nH]4)ccc3c2)cc1)[C@@H](C)OC` [compound 558], the pEC50 is greater than 9.00.

For `COC(=O)N[C@H](C(=O)N1CCC[C@H]1C(=O)N[C@@H](C)c1ccc(-c2ccc3cc(-c4cnc([C@@H]5CCCN5C(=O)[C@@H](NC(=O)OC)C5CCOCC5)[nH]4)ccc3c2)cc1)C1CCOCC1` [compound 559], the pEC50 was greater than 9.00.

For the compound `COC(=O)N[C@@H](C)C(=O)N1CCC[C@H]1C(=O)N[C@H](C)c1ccc(-c2ccc3cc(-c4cnc([C@@H]5CCCN5C(=O)[C@H](C)NC(=O)OC)[nH]4)ccc3c2)cc1` [compound 560], the pEC50 is 6.00 to 8.00.

`COC(=O)N[C@H](C(=O)N1CCC[C@H]1C(=O)N[C@H](C)c1ccc(-c2ccc3cc(-c4cnc([C@@H]5CCCN5C(=O)[C@@H](NC(=O)OC)C(C)C)[nH]4)ccc3c2)cc1)C(C)C` [compound 561]: the pEC50 was 6.00 to 8.00.

As for `COC(=O)N[C@H](C(=O)N1CCC[C@H]1C(=O)N[C@H](C)c1ccc(-c2ccc3cc(-c4cnc([C@@H]5CCCN5C(=O)[C@@H](NC(=O)OC)[C@@H](C)OC)[nH]4)ccc3c2)cc1)[C@@H](C)OC` [compound 562], the pEC50 is 6.00 to 8.00.

Regarding `COC(=O)N[C@H](C(=O)N1CCC[C@H]1C(=O)N[C@H](C)c1ccc(-c2ccc3cc(-c4cnc([C@@H]5CCCN5C(=O)[C@@H](NC(=O)OC)C5CCOCC5)[nH]4)ccc3c2)cc1)C1CCOCC1` [compound 563], the pEC50 was 8.00 to 9.00.

Take `COC(=O)N[C@@H](C)C(=O)N1CCC[C@H]1CNC(=O)c1ccc(-c2ccc3cc(-c4cnc([C@@H]5CCCN5C(=O)[C@H](C)NC(=O)OC)[nH]4)ccc3c2)cc1` [compound 564]: the pEC50 is 6.00 to 8.00.

With `COC(=O)N[C@H](C(=O)N1CCC[C@H]1CNC(=O)c1ccc(-c2ccc3cc(-c4cnc([C@@H]5CCCN5C(=O)[C@@H](NC(=O)OC)C(C)C)[nH]4)ccc3c2)cc1)C(C)C` [compound 565], the pEC50 is greater than 9.00.

For `COC(=O)N[C@@H](C)C(=O)N1CCC[C@H]1C(=O)NCc1ccc(-c2ccc3cc(-c4cnc([C@@H]5CCCN5C(=O)[C@H](C)NC(=O)OC)[nH]4)ccc3c2)cc1` [compound 566], the pEC50 is 6.00 to 8.00.

In the case of `COC(=O)N[C@H](C(=O)N1CCC[C@H]1C(=O)NCc1ccc(-c2ccc3cc(-c4cnc([C@@H]5CCCN5C(=O)[C@@H](NC(=O)OC)C(C)C)[nH]4)ccc3c2)cc1)C(C)C` [compound 567], the pEC50 is 6.00 to 8.00.

In the case of `COC(=O)N[C@H](C(=O)N1CCC[C@H]1C(=O)NCc1ccc(-c2ccc3cc(-c4cnc([C@@H]5CCCN5C(=O)[C@@H](NC(=O)OC)[C@@H](C)OC)[nH]4)ccc3c2)cc1)[C@@H](C)OC` [compound 568], the pEC50 was 6.00 to 8.00.

`COC(=O)N[C@H](C(=O)N1CCC[C@H]1C(=O)NCc1ccc(-c2ccc3cc(-c4cnc([C@@H]5CCCN5C(=O)[C@@H](NC(=O)OC)C5CCOCC5)[nH]4)ccc3c2)cc1)C1CCOCC1` [compound 569]: the pEC50 is greater than 9.00.

With `COC(=O)N[C@@H](C)C(=O)N1CCC[C@H]1C(=O)Nc1ccc(-c2ccc3cc(-c4cnc([C@@H]5CCCN5C(=O)[C@H](C)NC(=O)OC)[nH]4)ccc3c2)cc1` [compound 570], the pEC50 was 8.00 to 9.00.

Turning to `COC(=O)N[C@H](C(=O)N1CCC[C@H]1C(=O)Nc1ccc(-c2ccc3cc(-c4cnc([C@@H]5CCCN5C(=O)[C@@H](NC(=O)OC)C(C)C)[nH]4)ccc3c2)cc1)C(C)C` [compound 571], the pEC50 was greater than 9.00.
